Values of other authors in article PMC7579232 (Current Clinical Pharmacology, 2020).

Experiments:
[1] = rabbits
[2] = rats

In the case of `C=CC[C@@H]1/C=C(\C)C[C@H](C)C[C@H](OC)[C@H]2O[C@@](O)(C(=O)C(=O)N3CCCC[C@H]3C(=O)O[C@H](/C(C)=C/[C@@H]3CC[C@@H](O)[C@H](OC)C3)[C@H](C)[C@@H](O)CC1=O)[C@H](C)C[C@@H]2OC` [tacrolimus], the “Effect of co-administered pomegranate dietary products on drug concentration” value (a heart transplant patient) is listed as “increased”.

For `CCOC(=O)C1=C(C)NC(C)=C(C(=O)OC)C1c1cccc([N+](=O)[O-])c1` (stereo not drawn) [nitrendipine], the “Increase of area under the concentration-time curve by pomegranate juice” value [1] is given as 2.03 fold and the “Increase of peak plasma concentration by pomegranate juice” value [1] is given as 2 fold.

In the case of `NC(=O)N1c2ccccc2C=Cc2ccccc21` [carbamazepine], the “Effect of pomegranate juice on elimination half-life” value [2] is listed as “does not affect” and the “Increase of AUC by pomegranate juice” value ([2]; oral carbamazepine with pomegranate juice) is listed as “approximately 1.5 fold”.

For `Cc1ncc2n1-c1ccc(Cl)cc1C(c1ccccc1F)=NC2` [midazolam], the “Effect of pomegranate juice on Cmax and AUC” value (oral midazolam, healthy volunteers) is given as “did not affect”.
